For the test, the target named is GABAC receptor ρ1 subunit (Homo sapiens, UniProt P24046). Kind of test: two-electrode voltage clamp in Xenopus oocytes expressing human ρ[…]. In kind it is cell-based. Background: Two-electrode voltage clamp is typically applied to oocytes expressing channels or transporters.
Chain of GABAC receptor ρ1 subunit (P24046 22-479): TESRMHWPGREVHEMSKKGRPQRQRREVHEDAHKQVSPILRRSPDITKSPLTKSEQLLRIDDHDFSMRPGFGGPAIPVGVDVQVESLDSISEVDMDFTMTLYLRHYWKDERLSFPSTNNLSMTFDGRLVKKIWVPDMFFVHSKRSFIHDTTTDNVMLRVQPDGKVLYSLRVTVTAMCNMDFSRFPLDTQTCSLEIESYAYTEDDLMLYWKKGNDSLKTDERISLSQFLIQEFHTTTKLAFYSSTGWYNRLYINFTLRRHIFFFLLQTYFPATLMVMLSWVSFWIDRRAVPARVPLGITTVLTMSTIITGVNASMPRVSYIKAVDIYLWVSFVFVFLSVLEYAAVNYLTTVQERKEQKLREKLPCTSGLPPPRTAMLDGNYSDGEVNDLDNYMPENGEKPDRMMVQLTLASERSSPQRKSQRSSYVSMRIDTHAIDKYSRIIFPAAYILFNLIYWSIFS

`CC(C)=CCC[C@](C)(O)[C@H]1CC[C@]2(C)[C@@H]1[C@H](O)C[C@@H]1[C@@]3(C)CC[C@H](O)C(C)(C)[C@@H]3[C@@H](O)C[C@]12C` [M4, protopanaxatriol] yielded an IC50 of 45.7 ± 3.9 µM.

By IC50 is commonly meant the midpoint of a concentration-inhibition curve. Low readings indicate inhibition by little substance, high ones a need for much substance.

Values taken from PMC3634089 (The Korean Journal of Physiology & Pharmacology : …, 2013).
